One block for each compound: values may come before it. Calls of active or inactive are those of the source. The rule behind the calls is not given here.
Columns and labels:
[1] = molecular target: Hepatocyte growth factor receptor (Homo sapiens, UniProt P08581, Y1230H); experiment: Displacement of tracer 236 from N-terminal GST-tagged recombinant human MET Y1230H mutant (956 to end residues) expressed in Sf9 insect cells incubated for 1 hr by TR-FRET assay
[2] = molecular target: T1, Hepatocyte growth factor receptor (Homo sapiens, UniProt P08581, D1228N); experiment: Displacement of tracer 236 from N-terminal GST-tagged recombinant human MET D1228N mutant (956 to end residues) expressed in Sf9 insect cells incubated for 1 hr by TR-FRET assay
T1 sequence (P08581 25-1390 D1228N limits assumed): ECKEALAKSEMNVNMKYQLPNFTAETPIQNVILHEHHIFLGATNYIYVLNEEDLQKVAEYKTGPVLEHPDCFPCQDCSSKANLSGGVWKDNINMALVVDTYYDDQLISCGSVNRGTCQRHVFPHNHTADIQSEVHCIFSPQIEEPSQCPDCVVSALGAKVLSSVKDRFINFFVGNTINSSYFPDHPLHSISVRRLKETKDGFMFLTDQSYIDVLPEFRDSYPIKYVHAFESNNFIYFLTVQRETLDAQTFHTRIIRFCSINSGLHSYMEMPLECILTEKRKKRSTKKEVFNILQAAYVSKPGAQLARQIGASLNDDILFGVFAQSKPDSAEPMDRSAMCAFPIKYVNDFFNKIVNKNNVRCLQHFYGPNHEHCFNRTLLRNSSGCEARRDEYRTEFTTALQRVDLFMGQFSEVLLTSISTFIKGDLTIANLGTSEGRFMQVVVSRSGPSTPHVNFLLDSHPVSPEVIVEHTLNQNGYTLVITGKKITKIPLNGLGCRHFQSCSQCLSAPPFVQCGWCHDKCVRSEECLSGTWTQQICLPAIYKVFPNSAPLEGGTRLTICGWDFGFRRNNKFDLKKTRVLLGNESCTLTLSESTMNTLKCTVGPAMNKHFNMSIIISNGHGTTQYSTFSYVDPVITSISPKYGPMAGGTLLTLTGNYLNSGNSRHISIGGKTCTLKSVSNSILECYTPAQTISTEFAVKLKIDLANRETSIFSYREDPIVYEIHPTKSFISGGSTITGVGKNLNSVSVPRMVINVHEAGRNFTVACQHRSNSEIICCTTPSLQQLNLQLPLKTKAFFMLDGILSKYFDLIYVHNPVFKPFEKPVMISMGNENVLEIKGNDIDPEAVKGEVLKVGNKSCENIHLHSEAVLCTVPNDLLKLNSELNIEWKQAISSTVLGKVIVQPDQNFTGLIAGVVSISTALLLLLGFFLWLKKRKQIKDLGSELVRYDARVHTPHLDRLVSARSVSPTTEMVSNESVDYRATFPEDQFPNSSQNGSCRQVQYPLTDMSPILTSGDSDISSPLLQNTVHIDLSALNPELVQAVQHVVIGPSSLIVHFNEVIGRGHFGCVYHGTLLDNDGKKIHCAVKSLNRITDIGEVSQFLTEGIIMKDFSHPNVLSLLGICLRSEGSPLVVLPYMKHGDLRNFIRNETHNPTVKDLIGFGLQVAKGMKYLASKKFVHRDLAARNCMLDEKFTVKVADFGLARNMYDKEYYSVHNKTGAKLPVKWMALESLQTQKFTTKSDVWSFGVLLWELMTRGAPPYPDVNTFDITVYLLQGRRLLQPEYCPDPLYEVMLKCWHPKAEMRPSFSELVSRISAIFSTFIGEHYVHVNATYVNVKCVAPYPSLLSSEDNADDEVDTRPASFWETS

[3] = molecular target: Hepatocyte growth factor receptor (Homo sapiens, UniProt P08581, F1200I); experiment: Displacement of tracer 236 from N-terminal GST-tagged recombinant human MET F1200I mutant (956 to end residues) expressed in Sf9 insect cells incubated for 1 hr by TR-FRET assay
[4] = Metabolic stability in mouse hepatocytes assessed as clearance at 2 uM measured upto 120 mins by LC-MS/MS analysis; type: ADME, cell-based, Hepatocyte
[5] = Displacement of tracer 236 from N-terminal GST-tagged recombinant human MET […] mutant (956 to end residues) expressed in Sf9 insect cells incubated for 1 hr by TR-FRET assay
[6] = molecular target: T1, Hepatocyte growth factor receptor; experiment: Inhibition of MET D1228N mutant (unknown origin) transfected in mouse NIH3T3 cells incubated for 1 hr by In-Cell Western assay; type: cell-based
[7] = Metabolic stability in human hepatocytes assessed as clearance at 2 uM measured upto 120 mins by LC-MS/MS analysis; type: ADME, cell-based, Hepatocyte
[8] = Apparent permeability across apical to basolateral side in MDCKII-MDR1 cells at 1 uM incubated for 2 hrs in orbital shaker by LC-MS/MS analysis; type: ADME, cell-based, Canis lupus familiaris; details: dog, MDCK-MDR1
[9] = Displacement of tracer 236 from N-terminal GST-tagged recombinant human MET exon 14 deletion mutant (956 to end residues) expressed in Sf9 insect cells incubated for 1 hr by TR-FRET assay
[10] = Efflux ratio of apparent permeability across basolateral to apical over apical to basolateral side in MDCKII-MDR1 cells at 1 uM incubated for 2 hrs in orbital shaker by LC-MS/MS analysis; type: ADME, cell-based, Canis lupus familiaris; details: dog, MDCK-MDR1
[11] = test system: NIH3T3; experiment: Antitumor activity against mouse NIH3T3 cells expressing luciferase and human MET exon 14 deletion construct with MET-D1228N Type I resistance mutation implanted in female athymic nude Foxn1nu mouse assessed as animal survival rate at 100 mg/kg, po qd measured until 80 days relative to control; type: functional; details: NIH3T3, 1920 h, time 80 day
[12] = Volume of distribution at steady state in female athymic nude Foxn1nu mouse at 1 mg/kg, iv administered as single dose and measured after 24 hrs by LC/MS analysis; type: ADME, organism-based; details: in vivo, read-out: Vdss
[13] = test system: Hs746T; experiment: Antitumor activity against human Hs746T cells expressing MET exon 14 skipping mutation with MET amplification xenografted in female athymic nude Foxn1nu mouse at 100 mg/kg, po qd administered for 14 days; type: functional, organism-based; details: time 14.0 day
[14] = Ratio of unbound drug concentration in female athymic nude Foxn1nu mouse brain to plasma at 100 mg/kg, po administered as single dose and measured after 24 hrs by LC/MS analysis; type: ADME, organism-based; details: read-out: K(p,uu,brain)
[15] = Hepatic extraction ratio in female athymic nude Foxn1nu mouse at 1 mg/kg, iv administered as single dose and measured after 24 hrs by LC/MS analysis; type: ADME, organism-based; details: in vivo, read-out: ERH
[16] = test system: Cytochrome P450; experiment: Inhibition of CYP450 (unknown origin); type: ADME, protein assay; details: human
[17] = Cmax in female athymic nude Foxn1nu mouse brain at 30 mg/kg, po administered as single dose and measured after 24 hrs by LC/MS analysis; type: ADME, organism-based; details: in vivo
[18] = molecular target: Vascular endothelial growth factor receptor 2 (Homo sapiens, UniProt P35968); experiment: Inhibition of VEGFR2 in human Flp-In-293 cells by ELISA; type: toxicity, cell-based
[19] = test system: NIH3T3; experiment: (§1) Antitumor activity against mouse NIH3T3 cells expressing luciferase and human MET exon 14 deletion construct with MET-D1228N Type I resistance mutation implanted in female athymic nude Foxn1nu mouse assessed as reduction in tumor burden at 30 mg/kg, po bid measured after 29 days by luminescent imaging based analysis; type: functional, organism-based; details: time 29.0 day
[20] = test system: NIH3T3; experiment: as §1, with “100” for “30”, “qd” for “bid”; type: functional, organism-based; details: time 29.0 day
[21] = molecular target: Macrophage-stimulating protein receptor (Homo sapiens) (UniProt Q04912); experiment: Inhibition of human RON incubated for 5 mins in presence of ATP by chelation-enhanced fluorescence based Beckman Coulter analysis relative to control
Sequence of Macrophage-stimulating protein receptor (Homo sapiens) (Q04912 25-304 limits assumed): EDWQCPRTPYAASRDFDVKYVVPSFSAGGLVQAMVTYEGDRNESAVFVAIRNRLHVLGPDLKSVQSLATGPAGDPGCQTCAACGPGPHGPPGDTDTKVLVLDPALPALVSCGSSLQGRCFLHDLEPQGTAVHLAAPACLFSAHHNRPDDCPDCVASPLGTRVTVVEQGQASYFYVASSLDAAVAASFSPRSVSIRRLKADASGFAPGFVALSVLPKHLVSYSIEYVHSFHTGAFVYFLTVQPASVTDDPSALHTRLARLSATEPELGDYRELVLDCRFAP
Sequence of Macrophage-stimulating protein receptor (Homo sapiens) (Q04912 310-1400 limits assumed): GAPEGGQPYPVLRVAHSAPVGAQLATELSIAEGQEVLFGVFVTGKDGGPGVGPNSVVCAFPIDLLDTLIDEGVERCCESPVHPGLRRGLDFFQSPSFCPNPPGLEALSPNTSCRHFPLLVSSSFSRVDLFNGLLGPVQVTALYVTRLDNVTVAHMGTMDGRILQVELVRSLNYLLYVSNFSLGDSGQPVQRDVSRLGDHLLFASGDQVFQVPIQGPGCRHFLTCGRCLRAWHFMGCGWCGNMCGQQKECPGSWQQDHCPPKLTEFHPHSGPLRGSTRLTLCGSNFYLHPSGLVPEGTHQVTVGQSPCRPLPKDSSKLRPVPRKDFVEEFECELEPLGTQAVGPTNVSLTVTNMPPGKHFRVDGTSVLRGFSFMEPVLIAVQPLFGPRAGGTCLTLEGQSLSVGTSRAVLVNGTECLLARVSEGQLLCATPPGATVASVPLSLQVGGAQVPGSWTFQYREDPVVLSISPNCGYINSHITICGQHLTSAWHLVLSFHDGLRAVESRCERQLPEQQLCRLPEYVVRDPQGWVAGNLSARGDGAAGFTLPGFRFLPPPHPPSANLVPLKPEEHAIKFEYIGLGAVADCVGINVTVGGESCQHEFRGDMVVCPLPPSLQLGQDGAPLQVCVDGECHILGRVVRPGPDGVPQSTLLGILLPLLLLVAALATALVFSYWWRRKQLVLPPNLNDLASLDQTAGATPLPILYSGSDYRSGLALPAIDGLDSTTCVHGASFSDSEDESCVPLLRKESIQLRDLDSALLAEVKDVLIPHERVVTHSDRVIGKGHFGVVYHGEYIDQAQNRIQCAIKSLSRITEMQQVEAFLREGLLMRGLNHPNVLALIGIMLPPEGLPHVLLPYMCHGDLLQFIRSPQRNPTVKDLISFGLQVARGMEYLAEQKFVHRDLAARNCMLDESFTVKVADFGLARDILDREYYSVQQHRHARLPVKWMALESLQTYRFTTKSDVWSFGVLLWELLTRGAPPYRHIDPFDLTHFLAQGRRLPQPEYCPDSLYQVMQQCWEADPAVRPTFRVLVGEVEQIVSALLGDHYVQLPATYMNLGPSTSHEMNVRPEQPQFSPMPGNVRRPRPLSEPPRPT

[22] = AUCinfinity in female athymic nude Foxn1nu mouse at 30 mg/kg, po administered as single dose and measured after 24 hrs by LC/MS analysis; type: ADME, organism-based; details: in vivo
[23] = test system: Hs746T; experiment: Antitumor activity against human Hs746T cells expressing MET exon 14 skipping mutation with MET amplification xenografted in female athymic nude Foxn1nu mouse at 3 to 30 mg/kg, po bid administered for 14 days; type: functional, organism-based; details: dose 3-30 mg/kg, time 14.0 day
[24] = Ratio of unbound drug concentration in female athymic nude Foxn1nu mouse brain to plasma at 30 mg/kg, po administered as single dose and measured after 24 hrs by LC/MS analysis; type: ADME, organism-based; details: read-out: K(p,uu,brain)
[25] = test system: NIH3T3; experiment: as §1, with “median survival time” for “reduction in tumor burden”, “(reference value: 15.5 day)” for “by luminescent imaging based analysis”; type: functional; details: time 29 day
[26] = Half life in female athymic nude Foxn1nu mouse at 1 mg/kg, iv administered as single dose and measured after 24 hrs by LC/MS analysis; type: ADME, organism-based; details: in vivo
[27] = Clearance in female athymic nude Foxn1nu mouse at 1 mg/kg, iv administered as single dose and measured after 24 hrs by LC/MS analysis; type: ADME, organism-based; details: in vivo
[28] = Tmax in female athymic nude Foxn1nu mouse at 30 mg/kg, po administered as single dose and measured after 24 hrs by LC/MS analysis; type: ADME, organism-based; details: in vivo
[29] = Cmax in female athymic nude Foxn1nu mouse plasma at 30 mg/kg, po administered as single dose and measured after 24 hrs by LC/MS analysis; type: ADME, organism-based
[30] = In vivo inhibition of MET in female athymic nude Foxn1nu mouse implanted with mouse NIH3T3 cells expressing luciferase and human MET exon 14 deletion construct with MET-D1228N Type I resistance mutation assessed as reduction in phospho-MET protein level in tumor by measuring residual activity at 30 to 100 mg/kg, po administered as single dose measured after 12 hrs by ELISA relative to control; type: functional; details: dose 30-100 mg/kg
[31] = test system: Mus musculus; experiment: In vivo inhibition of MET in female athymic nude Foxn1nu mouse xenografted with human Hs746T cells expressing MET exon 14 skipping mutation with MET amplification assessed as reduction in phospho-MET protein level in tumor at 3 to 100 mg/kg, po administered as single dose measured after 2 to 8 hrs by ELISA relative to control; type: functional, organism-based; details: dose 3-100 mg/kg, time 2-8 hrs

Sequence of Hepatocyte growth factor receptor (Homo sapiens, UniProt P08581, Y1230H) (P08581 25-1390 Y1230H limits assumed): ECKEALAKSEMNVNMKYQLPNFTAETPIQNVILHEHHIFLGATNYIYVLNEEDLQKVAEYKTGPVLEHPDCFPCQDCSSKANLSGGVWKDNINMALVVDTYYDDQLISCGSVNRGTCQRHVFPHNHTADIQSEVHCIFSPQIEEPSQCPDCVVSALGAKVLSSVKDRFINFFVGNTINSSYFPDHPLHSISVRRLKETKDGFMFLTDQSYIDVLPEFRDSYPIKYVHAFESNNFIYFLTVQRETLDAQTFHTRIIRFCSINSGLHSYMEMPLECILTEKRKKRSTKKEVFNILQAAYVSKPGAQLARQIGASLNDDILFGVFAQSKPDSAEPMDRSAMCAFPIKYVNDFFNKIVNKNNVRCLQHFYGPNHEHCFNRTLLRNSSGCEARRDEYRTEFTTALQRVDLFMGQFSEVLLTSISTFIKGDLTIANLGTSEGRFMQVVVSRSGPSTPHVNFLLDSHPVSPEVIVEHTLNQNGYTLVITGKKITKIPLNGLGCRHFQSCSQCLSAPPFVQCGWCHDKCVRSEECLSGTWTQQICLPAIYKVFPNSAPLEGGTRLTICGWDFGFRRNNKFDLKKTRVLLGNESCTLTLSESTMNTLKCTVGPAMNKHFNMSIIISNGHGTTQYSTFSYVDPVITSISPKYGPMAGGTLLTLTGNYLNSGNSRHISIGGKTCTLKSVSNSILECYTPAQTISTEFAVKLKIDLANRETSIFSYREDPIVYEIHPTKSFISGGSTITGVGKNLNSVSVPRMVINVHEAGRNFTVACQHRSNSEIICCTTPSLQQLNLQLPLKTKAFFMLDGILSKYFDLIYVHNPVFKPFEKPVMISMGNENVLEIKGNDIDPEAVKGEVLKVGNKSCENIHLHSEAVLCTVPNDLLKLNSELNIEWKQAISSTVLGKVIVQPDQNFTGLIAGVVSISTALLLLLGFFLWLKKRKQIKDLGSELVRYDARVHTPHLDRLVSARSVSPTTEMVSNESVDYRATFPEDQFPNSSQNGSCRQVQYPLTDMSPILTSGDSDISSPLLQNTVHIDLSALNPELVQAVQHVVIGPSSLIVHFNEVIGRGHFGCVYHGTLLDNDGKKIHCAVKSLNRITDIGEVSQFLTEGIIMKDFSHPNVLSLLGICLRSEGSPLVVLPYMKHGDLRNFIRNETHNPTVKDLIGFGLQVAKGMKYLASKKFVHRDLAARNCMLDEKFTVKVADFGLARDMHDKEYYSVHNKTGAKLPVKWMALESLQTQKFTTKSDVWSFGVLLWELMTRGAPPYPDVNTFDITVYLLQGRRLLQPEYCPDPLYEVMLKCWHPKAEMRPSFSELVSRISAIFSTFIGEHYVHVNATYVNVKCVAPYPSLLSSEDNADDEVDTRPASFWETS

SMILES: Cn1ccc([C@H]2C[C@H](N(c3cc(F)c(NC(=O)c4ccnn(-c5ccc(F)cn5)c4=O)cc3F)c3cc(F)cn4nccc34)C2)n1
- IC50 [1]: 11 nM
- IC50 [2]: 33 nM
- IC50 [3]: 278 nM
- CLhep predicted at 2 µM [4]: 15 mL/min/kg
- IC50 [5]: 41 nM
- IC50 [6]: 37 nM
- CLhep predicted at 2 µM [7]: 3 mL/min/kg
- Papp A→B at 2 h, 1 µM [8]: 2 ×10⁻⁶ cm/s
- IC50 [9]: 13 nM

SMILES: O=C(Nc1cc(F)c(Oc2cccn3nccc23)cc1F)c1ccnn(-c2ccc(F)cc2)c1=O
- IC50 [1]: 84 nM
- IC50 [2]: 165 nM
- IC50 [3]: 5000 nM
- IC50 [5]: 717 nM
- IC50 [6]: 1680 nM
- IC50 [9]: 27 nM

SMILES: Cn1ccc([C@H]2C[C@H](N(c3cc(Cl)c(NC(=O)c4ccnn(-c5ccc(F)cn5)c4=O)cc3F)c3nccn4nccc34)C2)n1
- IC50 [1]: 13 nM
- IC50 [2]: 21 nM
- IC50 [3]: 479 nM
- efflux ratio at 2 h, 1 µM [10]: 1
- CLhep predicted at 2 µM [4]: 9 mL/min/kg
- IC50 [5]: 125 nM
- IC50 [6]: 97 nM
- CLhep predicted at 2 µM [7]: 5 mL/min/kg
- Papp A→B at 2 h, 1 µM [8]: 6 ×10⁻⁶ cm/s
- IC50 [9]: 12 nM

SMILES: Cc1cc(N(c2nccn3nccc23)[C@H]2C[C@H](c3ccn(C)n3)C2)c(F)cc1NC(=O)c1ccnn(-c2ccc(F)cn2)c1=O
- IC50 [1]: 5 nM
- IC50 [2]: 10 nM
- IC50 [3]: 217 nM
- efflux ratio at 2 h, 1 µM [10]: 0.9
- CLhep predicted at 2 µM [4]: 17 mL/min/kg
- IC50 [5]: 64 nM
- IC50 [6]: 41 nM
- CLhep predicted at 2 µM [7]: 22 mL/min/kg
- Papp A→B at 2 h, 1 µM [8]: 4 ×10⁻⁶ cm/s

SMILES: O=C(Nc1cc(F)c(N(c2cccn3nccc23)C2CCC2)cc1F)c1ccnn(-c2ccc(F)cc2)c1=O
- IC50 [1]: 30 nM
- IC50 [2]: 24 nM
- IC50 [3]: 222 nM
- IC50 [5]: 57 nM
- IC50 [6]: 158 nM
- IC50 [9]: 16 nM

SMILES: Cn1ccc([C@H]2C[C@H](N(c3cc(F)c(NC(=O)c4ccnn(-c5ccc(F)cn5)c4=O)cc3F)c3nccn4nccc34)C2)n1
- survival at 100 mg/kg [11]: 100%
- Vd [12]: 1.3 L/kg
- Activity [13]: Active
- IC50 [1]: 5 nM
- Kp uu at 24 h [14]: 0.24
- hepatic extraction ratio at 24 h [15]: 0.106
- inhibition (INH) [16]: Not Active
- Cmax [17]: 900 ng/mL
- IC50 [18]: > 5000 nM
- IC50 [2]: 6 nM
- IC50 [3]: 90 nM
- Activity [19]: Active
- Activity [20]: Active
- inhibition [21]: > 50%
- AUC(0-inf) [22]: 113 µg·h/mL
- efflux ratio at 2 h, 1 µM [10]: 1.1
- CLhep predicted at 2 µM [4]: 35 mL/min/kg
- IC50 [5]: 15 nM
- IC50 [6]: 23 nM
- Activity [23]: Active
- Kp uu at 24 h [24]: 0.11
- CLhep predicted at 2 µM [7]: 13 mL/min/kg
- Papp A→B at 2 h, 1 µM [8]: 8 ×10⁻⁶ cm/s
- IC50 [9]: 6 nM
- MST [25]: 33 days
- half-life [26]: 1.9 h
- clearance [27]: 9.5 mL/min/kg
- Tmax [28]: 2 h
- Cmax [29]: 10500 ng/mL
- Activity [30]: <6%
- inhibition [31]: Active

Further compounds by falling IC50 [1], results first:

- IC50 [1]: 7 nM
- IC50 [2]: 9 nM
- IC50 [3]: 147 nM
- CLhep predicted at 2 µM [4]: 31 mL/min/kg
- IC50 [6]: 28 nM
- CLhep predicted at 2 µM [7]: 9 mL/min/kg
- Papp A→B at 2 h, 1 µM [8]: 5 ×10⁻⁶ cm/s
SMILES: Cn1ccc([C@H]2C[C@H](N(c3cc(F)c(NC(=O)c4ccnn(-c5ccc(F)cn5)c4=O)cc3Cl)c3nccn4nccc34)C2)n1
- IC50 [5]: 36 nM
- IC50 [9]: 6 nM

- IC50 [1]: 7 nM
- IC50 [2]: 8 nM
- IC50 [3]: 326 nM
- IC50 [6]: 25 nM
SMILES: CC(C)(C#N)CN(c1cc(F)c(NC(=O)c2ccnn(-c3ccc(F)cc3)c2=O)cc1F)c1cccn2nccc12
- IC50 [5]: 53 nM

- IC50 [1]: 2 nM
- IC50 [2]: 5 nM
- IC50 [3]: 96 nM
- IC50 [6]: 57 nM
SMILES: CC(C)(C#N)CN(c1cc(F)c(NC(=O)c2ccnn(-c3ccc(F)cn3)c2=O)cc1F)c1cccn2nccc12
- IC50 [5]: 39 nM
- IC50 [9]: 3 nM

— ChEMBL document CHEMBL5576125, “Discovery of Pyrazolopyrazines as Selective, Potent, and Mutant-Active MET Inhibitors with Intracranial Efficacy” (J Med Chem, 2024)
